Values after ≈ are worked out from the molar mass of the structure shown. “Also recorded” adds a separate entry of the source.
Assays:
S180 sarcoma = assay: In vivo tumor inhibition experiment, transplanted tumor S180 in mice; design: species or system Kunming mice; conditions: for Tumor inhibition rate % / Tumor weight (g) X ± SD: S180 sarcoma mice, dl, 4, killed on eighth day
Procedure: In Vivo Tumor Inhibition Experiment of Example
The inhibitory effects of example S47 and example S70 of the present disclosure on animal transplanted tumor S180 were tested.
Kunming mice, ♀, 22±1 g, were purchased from Shanghai Slac Laboratory Animal Co., Ltd. Certificate number: SCXK (Shanghai) 2013-0010-02. Feeding environment: SPF level. Example S47, example S70 and carboplatin, a positive control drug, were prepared with 5% glucose to the required concentration. Mice were subcutaneously inoculated with S180 sarcoma cells, and the drug administration was started on the next day of inoculation. The mice were killed on the eighth day, and the tumor was weighed and the tumor inhibition rate was calculated.
Tumor inhibition rate=(tumor weight in the control group−tumor weight in the treatment group)/tumor weight in the control group×100

[1] = In vitro water solubility experiment; conditions: for solubility at 30 min / solubility: 25 °C, water, thermodynamic from solid; for improvement of water solubility compared with carboplatin: compared with the marketed drug carboplatin
Procedure: In Vitro Water Solubility Experiment of Example
At room temperature of 25° C., the test sample that had been ground into a fine powder was weighed accurately, and shaken vigorously for 30 seconds every 5 minutes in a certain volume of distilled water; and the dissolution of each test sample was observed within 30 minutes. If no visible solute particles were visible, the sample was considered to be completely dissolved.

[2] = background, studies have shown; cited from earlier work

CC(=O)N[C@@H](CCCNC(=N)N)C(=O)NCC(=O)N[C@@H](CC(=O)O)C(=O)NCCSC1CC(=O)N(CCCCCC(=O)NN=C2CC3(C2)C(=O)[O][Pt]([NH2])([NH2])[O]C3=O)C1=O (stereo partly drawn) [Example S70]
Tumor inhibition rate % (S180 sarcoma; dose 80, Ip): 52.3%
Tumor weight (g) X ± SD (S180 sarcoma; dose 80, Ip): 0.92 ± 0.20 g
Tumor inhibition rate % (S180 sarcoma; dose 160, Ip): 70.8%
Tumor weight (g) X ± SD (S180 sarcoma; dose 160, Ip): 0.56 ± 0.17 g
Tumor inhibition rate % (S180 sarcoma; dose 240, Ip): 84.6%
Tumor weight (g) X ± SD (S180 sarcoma; dose 240, Ip): 0.30 ± 0.14 g
inhibitory effect on growth of S180 sarcoma of mice (in words) (S180 sarcoma; compared with carboplatin at equimolar concentrations): more obvious ability to inhibit the growth of transplanted tumor S180 than the clinical drug carboplatin; also recorded: significantly better than carboplatin

N=C(N)NCCC[C@@H]1NC(=O)[C@@H](CCCCNC(=O)CCOCCOCCOCCOCCNC(=O)CC[C@H](NC(=O)CCSC2CC(=O)N(CCCCCC(=O)NN=C3CC4(C3)C(=O)[O][Pt]([NH2])([NH2])[O]C4=O)C2=O)C(=O)NCCOCCOCCOCCOCCC(=O)NCCCC[C@H]2NC(=O)[C@@H](Cc3ccccc3)NC(=O)[C@H](CC(=O)O)NC(=O)CNC(=O)[C@H](CCCNC(=N)N)NC2=O)NC(=O)[C@@H](Cc2ccccc2)NC(=O)[C@H](CC(=O)O)NC(=O)CNC1=O (stereo partly drawn) [Example S72]
solubility at 30 min [1]: > 30 mg/mL
improvement of water solubility compared with carboplatin [1]: ~1 fold

N=C(N)NCCC[C@@H]1NC(=O)[C@@H](CCCCNC(=O)CCOCCOCCOCCOCCNC(=O)CC[C@H](NC(=O)CCSC2CC(=O)N(CCOCCOCCC(=O)NN=C3CC4(C3)C(=O)[O][Pt]([NH2])([NH2])[O]C4=O)C2=O)C(=O)NCCOCCOCCOCCOCCC(=O)NCCCC[C@H]2NC(=O)[C@@H](Cc3ccccc3)NC(=O)[C@H](CC(=O)O)NC(=O)CNC(=O)[C@H](CCCNC(=N)N)NC2=O)NC(=O)[C@@H](Cc2ccccc2)NC(=O)[C@H](CC(=O)O)NC(=O)CNC1=O (stereo partly drawn) [Example S80]
solubility at 30 min [1]: > 30 mg/mL
improvement of water solubility compared with carboplatin [1]: ~1 fold

N=C(N)NCCC[C@@H]1NC(=O)[C@@H](CCCCNC(=O)CCOCCOCCOCCOCCNC(=O)CC[C@H](NC(=O)CCSC2CC(=O)N(CC3CCC(C(=O)NN=C4CC(C(=O)O)(C(=O)O)C4)CC3)C2=O)C(=O)NCCOCCOCCOCCOCCC(=O)NCCCC[C@H]2NC(=O)[C@@H](Cc3ccccc3)NC(=O)[C@H](CC(=O)O)NC(=O)CNC(=O)[C@H](CCCNC(=N)N)NC2=O)NC(=O)[C@@H](Cc2ccccc2)NC(=O)[C@H](CC(=O)O)NC(=O)CNC1=O (stereo partly drawn) [Example S95]
solubility [1]: > 30 mg/mL

N=C(N)NCCC[C@@H]1NC(=O)[C@@H](CCCCNC(=O)CCOCCOCCOCCOCCNC(=O)CC[C@H](NC(=O)CCSCC2=CCC(=O)N2CC2CCC(C(=O)NN=C3CC(C(=O)O)(C(=O)O)C3)CC2)C(=O)NCCOCCOCCOCCOCCC(=O)NCCCC[C@H]2NC(=O)[C@@H](Cc3ccccc3)NC(=O)[C@H](CC(=O)O)NC(=O)CNC(=O)[C@H](CCCNC(=N)N)NC2=O)NC(=O)[C@@H](Cc2ccccc2)NC(=O)[C@H](CC(=O)O)NC(=O)CNC1=O (stereo partly drawn) [Example S97]
solubility [1]: 30 mg/mL (≈ 13.1 mM)

[NH2][Pt]1([NH2])[O]C(=O)C2(CCC2)C(=O)[O]1 [carboplatin, reference compound]
solubility at 30 min [1]: 16.6 mg/mL
water solubility [2]: 17.0 mg/mL

Source: patent publication US20230339997A1, “CLASS OF PLATINUM COMPOUNDS FOR TREATING CANCER, AND METHOD FOR PREPARATION THEREOF” (SHANGHAI HAIJU BIOLOGICAL TECHNOLOGY CO., LTD., priority 2020, published 2023)
